Columns and labels:
human α1A-receptors = target: T1, human α1A-receptors (Homo sapiens, UniProt P35348); test: Phenylephrine-induced Ca2+ release in CHO cells expressing human α1A-receptors (fluo-4); type: cell-based; conditions: 10 µM phenylephrine, 1 mM EGTA buffer
T1 construct: expressed in transfected cells
T1 sequence (P35348 1-466): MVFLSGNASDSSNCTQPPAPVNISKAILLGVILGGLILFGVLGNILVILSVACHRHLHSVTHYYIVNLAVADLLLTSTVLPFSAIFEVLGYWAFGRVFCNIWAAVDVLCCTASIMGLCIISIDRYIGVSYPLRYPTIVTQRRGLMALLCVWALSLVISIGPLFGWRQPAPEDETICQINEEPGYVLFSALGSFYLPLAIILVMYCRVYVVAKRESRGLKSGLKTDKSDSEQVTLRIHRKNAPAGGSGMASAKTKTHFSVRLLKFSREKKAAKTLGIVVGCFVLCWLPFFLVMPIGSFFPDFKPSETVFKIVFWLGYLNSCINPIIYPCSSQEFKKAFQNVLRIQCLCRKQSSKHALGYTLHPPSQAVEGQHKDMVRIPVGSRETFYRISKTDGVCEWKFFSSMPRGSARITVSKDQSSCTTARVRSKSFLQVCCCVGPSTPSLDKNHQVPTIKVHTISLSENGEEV
Description: For measurement of norgestimate effects on adrenoceptor signaling a CHO cell line stably expressing human α1A-receptors (GenBank accession number NM_000680.2) under control of a CMV promoter was used. CHO cells were kept in HAM's F-12 medium (with glutaMAX I) supplemented with 10% (v/v) fetal bovine serum (Biochrom), 1 mM glutamine, and 0.6 mg/ml geneticin.
[Ca^2+]i measurements in CHO cells stably expressing human α1A –receptors were performed essentially as described for HEK-FITR cells. The α1- agonist phenylephrine was used for receptor stimulation.
Supplementary file pone.0035393.s001.tif: Figure S1 Stimulatory effect of norgestimate on α1A- receptor-mediated Ca^2+ signaling in CHO cells. (A) Phenylephrine (Phe) -induced changes of [Ca^2+]i were measured in a stable CHO cell line expressing human α1A-adrenoceptors. Cells loaded with fluo-4 were pre-incubated with or without 30 µM norgestimate (NG) and challenged with 10 µM phenylephrine or control buffer. Representative traces are shown. Fluorometric imaging plate reader [Ca^2+]i measurements were performed essentially as described for HEK-FITR cells (see Materials and Methods) with the exception that the extracellular buffer contained 1 mM EGTA instead of 2 mM Ca^2+. (B) The relative increase in Ca^2+ release induced in the presence of different concentrations of norgestimate is shown. […]

A7r5 cells = test: Whole-cell patch clamp, AVP-induced receptor-operated cation currents in A7r5 cells; type: cell-based; conditions: 10 µM, 100 nM AVP, measured at −70 mV, reversible, n = 8
Description: A7r5 cells (ATCC, Rockville, USA) were maintained in DMEM (with glutaMAX I, 4.5 g/l glucose and […] sodium pyruvate), supplemented with 10% (v/v) fetal bovine serum (PAA, Pasching, Austria).
The whole-cell patch clamp technique was employed to measure ion currents from single cells. Heat-polished patch pipettes with resistances of 2–4 MΩ were pulled from borosilicate glass capillaries (Hilgenberg, Malsfeld, Germany) using a DMZ-Universal puller (Zeitz-Instruments, Munich, Germany) and filled with standard intracellular solution containing: 120 mM CsOH, 120 mM gluconic acid, 2 mM MgCl2, 3 mM CaCl2, 5 mM Cs4-BAPTA, 10 mM HEPES (pH 7.4 adjusted with gluconic acid). For agonist-independent stimulation of TRPC currents the intracellular solution was supplemented with 30 µM AlCl3 and 10 mM NaF and cells were infused with AlF4 ^− through the patch pipette. AlF4 ^− is a non-specific activator of heterotrimeric G proteins that consequently leads to increased phospholipase C activity and TRPC channel activation. […]
Cells grown on poly-L-lysine-coated coverslips were continuously superfused with extracellular solution and substances were applied using an ALA BPS-8 perfusion system (ALA Scientific Instruments, Westbury, USA). […] Cells were held at −70 mV, and current-voltage (I–V) relationships were routinely measured every 2 or 3 s by applying voltage ramps (180 ms) from −100 mV to +80 mV. […]

With `C#C[C@]1(OC(C)=O)CC[C@H]2[C@@H]3CCC4=CC(=NO)CC[C@@H]4[C@H]3CC[C@@]21CC` (mixture of isomers) [norgestimate] the “Effect on phenylephrine-induced Ca2+ release” value (human α1A-receptors) was “significantly stimulated” and the “Reduction of AVP-induced receptor-operated cation currents” value (A7r5 cells) was 86.5±6.0%.

— paper PMC3328449, “Inhibition of Diacylglycerol–Sensitive TRPC Channels by Synthetic and Natural Steroids” (PLoS ONE, 2012)
